Like-named read-outs stand apart in the source and are kept apart here.
How the values were obtained:
Phakopsora pachyrhizi = test: Fungicidal activity: Asian soybean rust (PHAKPA), disease control on soybean seedlings; format: in vivo; settings: 24 h, 1 day protectant, read-out: PHAKPA 1DP disease control at 25 ppm
Protocol: Evaluation of Fungicidal Activity: Asian Soybean Rust (Phakopsora Pachyrhizi; Bayer Code PHAKPA)
Technical grades of materials were dissolved in acetone, which were then mixed with nine volumes of H2O containing 0.011% Tween 20. The fungicide solutions were applied onto soybean seedlings using an automated booth sprayer to run-off. All sprayed plants were allowed to air dry prior to further handling.
Soybean plants (variety Williams 82) were grown in soil-less Metro mix, with one plant per pot. Two weeks old seedlings were used for testing. Plants were inoculated either 3 days prior to or 1 day after fungicide treatments. Plants were incubated for 24 h in a dark dew room at 22° C. and 100% relative humidity then transferred to a growth room at 23° C. for disease to develop. Disease severity was assessed on the sprayed leaves.

Zymoseptoria tritici = test: Fungicidal activity: leaf blotch of wheat (SEPTTR), disease control on wheat seedlings; format: in vivo, Zymoseptoria tritici on wheat plants (variety Yuma); settings: for pest or weed control at 121.5 g/ha: low volume application, 121.5 g/H; for pest or weed control at 100 ppm: high volume application
Protocol: Evaluation of Fungicidal Activity: Leaf Blotch of Wheat (Zymoseptoria Tritici; Bayer Code […]) Technical grades of materials were dissolved in acetone, which were then mixed with nine volumes of water (H2O) containing 110 ppm Triton X-100. The fungicide solutions were applied onto wheat seedlings using an automated booth sprayer to run-off. All sprayed plants were allowed to air dry prior to further handling. All fungicides were evaluated using the aforementioned method for their activity vs. all target diseases, unless stated otherwise. Wheat leaf blotch and brown rust activity were also evaluated using track spray applications, in which case the fungicides were formulated as EC formulations, containing 0.1% Trycol 5941 in the spray solutions. Wheat plants (variety Yuma) were grown from seed in a greenhouse in 50% mineral soil/50% soil-less Metro mix until the first leaf was fully emerged, with 7-10 seedlings per pot. These plants were inoculated with an aqueous spore suspension of Zymoseptoria tritici either prior to or after fungicide treatments. After inoculation the plants were kept in 100% relative humidity (one day in a dark dew chamber followed by two to three days in a lighted dew chamber at 20° C.) to permit spores to germinate and infect the leaf. The plants were then transferred to a greenhouse set at 20° C. for disease to develop. When disease symptoms were fully expressed on the 1st leaves of untreated plants, infection levels were assessed on a scale of 0 to 100 percent disease severity. Percent disease control was calculated using the ratio of disease severity on treated plants relative to untreated plants.

Puccinia triticina = test: Fungicidal activity: wheat brown rust (PUCCRT), disease control on wheat seedlings; format: in vivo, Puccinia triticina on wheat plants (variety Yuma); settings: for pest or weed control at 121.5 g/ha: low volume application, 121.5 g/H; for pest or weed control at 100 ppm: high volume application
Protocol: Technical grades of materials were dissolved in acetone, which were then mixed with nine volumes of water (H2O) containing 110 ppm Triton X-100. The fungicide solutions were applied onto wheat seedlings using an automated booth sprayer to run-off. All sprayed plants were allowed to air dry prior to further handling. All fungicides were evaluated using the aforementioned method for their activity vs. all target diseases, unless stated otherwise. Wheat leaf blotch and brown rust activity were also evaluated using track spray applications, in which case the fungicides were formulated as EC formulations, containing 0.1% Trycol 5941 in the spray solutions. Evaluation of Fungicidal Activity: Wheat Brown Rust (Puccinia triticina; Synonym: Puccinia recondita f. Sp. Tritici; Bayer Code PUCCRT) Wheat plants (variety Yuma) were grown from seed in a greenhouse in 50% mineral soil/50% soil-less Metro mix until the first leaf was fully emerged, with 7-10 seedlings per pot. These plants were inoculated with an aqueous spore suspension of Puccinia triticina either prior to or after fungicide treatments. After inoculation the plants were kept in a dark dew room at 22° C. with 100% relative humidity overnight to permit spores to germinate and infect the leaf. The plants were then transferred to a greenhouse set at 24° C. for disease to develop. Fungicide formulation, application and disease assessment followed the procedures as described in the Example A. The results of the evalution are shown below in Table 4.

[1] = 24 h, 1 day protectant, read-out: SEPTTR 1DP disease control, LV activity at 121.5 g/H
[2] = 72 h, 3 day curative, read-out: SEPTTR 3DC disease control, LV activity at 121.5 g/H
[3] = 24 h, 1 day protectant, read-out: PUCCRT 1DP disease control, LV activity at 121.5 g/H
[4] = 72 h, 3 day curative, read-out: PUCCRT 3DC disease control, LV activity at 121.5 g/H
[5] = 24 h, 1 day protectant, read-out: SEPTTR 1DP disease control, HV activity at 100 ppm
[6] = 72 h, 3 day curative, read-out: SEPTTR 3DC disease control, HV activity at 100 ppm
[7] = 24 h, 1 day protectant, read-out: PUCCRT 1DP disease control, HV activity at 100 ppm
[8] = 72 h, 3 day curative, read-out: PUCCRT 3DC disease control, HV activity at 100 ppm

SMILES	pest or weed control at 25 ppm (Phakopsora pachyrhizi) [%]	pest or weed control at 121.5 g/ha (Zymoseptoria tritici; [1]) [%]	pest or weed control at 121.5 g/ha (Zymoseptoria tritici; [2]) [%]	pest or weed control at 121.5 g/ha (Puccinia triticina; [3]) [%]	pest or weed control at 121.5 g/ha (Puccinia triticina; [4]) [%]	pest or weed control at 100 ppm (Zymoseptoria tritici; [5]) [%]	pest or weed control at 100 ppm (Zymoseptoria tritici; [6]) [%]	pest or weed control at 100 ppm (Puccinia triticina; [7]) [%]	pest or weed control at 100 ppm (Puccinia triticina; [8]) [%]
CCC[C@H](OC(=O)[C@H](C)NC(=S)c1nccc(OC)c1OC(C)=O)[C@@H](C)Oc1ccccc1 [Compound 76]	≤ 80								
COc1ccnc(C(=S)N[C@@H](C)C(=O)O[C@@H](C)[C@@H](c2ccccc2)c2ccc(F)cc2)c1OC(C)=O [Compound 51]		> 80	> 80	> 80	≤ 80				
COc1ccnc(C(=S)N[C@@H](C)C(=O)O[C@@H](C)C(c2ccc(C)cc2C)c2ccc(C)cc2C)c1OC(C)=O [Compound 48]		> 80	> 80	> 80					
COc1cc(F)ccc1[C@H](c1ccc(C)cc1)[C@H](C)OC(=O)[C@H](C)NC(=S)c1nccc(OC)c1O [Compound 18]						> 80	> 80	> 80	> 80
CCCCC[C@@H](OC(=O)[C@H](C)NC(=S)c1nccc(OC)c1CC(C)=O)[C@H](C)Oc1ccccc1 [Compound 41]		> 80	> 80	> 80	> 80				
COc1ccc(O[C@@H](C)[C@H](OC(=O)[C@H](C)NC(=S)c2nccc(OC)c2OC(C)=O)C(C)C)cc1 [Compound 58]		> 80	> 80	> 80	> 80				
COc1ccnc(C(=S)N[C@@H](C)C(=O)O[C@@H](C)[C@H](Oc2ccccc2Cl)c2ccccc2)c1O [Compound 22, (1R,2S)-1-(2-chlorophenoxy)-1-phenylpropan-2-yl (3-hydroxy-4-methoxypyridine-2-carbonothioyl)-L-alaninate]						> 80	≤ 80	> 80	≤ 80
COc1ccnc(C(=S)N[C@@H](C)C(=O)O[C@@H](C)C(c2ccc(Cl)cc2)c2ccc(Cl)cc2)c1O [Compound 2]						> 80	> 80	> 80	
CCCCC[C@H](OC(=O)[C@H](C)NC(=S)c1nccc(OC)c1OC(C)=O)[C@@H](C)Oc1ccccc1 [Compound 42]		≤ 80		≤ 80	≤ 80				
CCCCC[C@@H](OC(=O)[C@H](C)NC(=S)c1nccc(OC)c1O)[C@H](C)Oc1ccccc1 [Compound 8]						≤ 80	≤ 80	> 80	
COc1ccnc(C(=S)N[C@@H](C)C(=O)O[C@@H](C)[C@H](Oc2ccccc2Cl)c2ccccc2)c1OC(C)=O [Compound 57, (1R,2S)-1-(2-chlorophenoxy)-1-phenylpropan-2-yl (3-acetoxy-4-methoxypyridine-2-carbonothioyl)-L-alaninate]		> 80	> 80	> 80	≤ 80				
COc1ccnc(C(=S)N[C@@H](C)C(=O)O[C@@H](C)C(c2ccc(Cl)cc2)c2ccc(Cl)cc2)c1OC(C)=O [Compound 47]		> 80	> 80	> 80	≤ 80				

— patent publication US10172358B2, “Thiopicolinamide compounds with fungicidal activity” (Dow AgroSciences LLC, priority 2016, dated 2019)
